Reference: US10995099B2, “Compounds and their uses as ACC inhibitors” (NANJING RUIJIE PHARMATECH CO., LTD., priority 2017, dated 2021)
Read-outs that look alike come from different tables or passages of the source.

Experiments:
[1] = biological target: ACC2 (Homo sapiens (Human), UniProt O00763); experiment: In vitro ACC inhibition assay (ADP-Glo), ACC2; format: biochemical
Experimental: (§1) Compounds of the present invention were evaluated in an in vitro ACC inhibition assay as described by Harwood, et al, 2003, the entirety of which is incorporated herein by reference.
(§2) In Vitro Acetyl-CoA Carboxylase (ACC) Inhibition Assay
(§3) An exemplary procedure for the in vitro ACC inhibition assay, which can be used to determine the inhibitory action of compounds of the invention toward either ACC1 or ACC2, follows. The ADP-Glo™ Kinase Assay kit from Promega was used. The ADP-Glo™ Kinase Assay is a luminescent ADP detection assay to measure enzymatic activity by quantifying the amount of ADP produced during an enzyme reaction. The assay is performed in two steps; first, after the enzyme reaction, an equal volume of ADP-Glo™ Reagent is added to terminate the reaction and deplete the remaining ATP. Second, the Kinase Detection Reagent is added to simultaneously convert ADP to ATP and allow the newly synthesized ATP to be measured using a luciferase/luciferin reaction. Luminescence can be correlated to ADP concentrations by using an ATP-to-ADP conversion curve. The detailed procedure is as follows. 50 μL of the compound being tested (600 uM in DMSO) was added to a 384-well dilution plate. The compound was diluted 1:3 in succession in DMSO for each row for 11 wells. 0.5 μL ACC2 working solution was added to 384-well white Optiplate assay plate. 0.5 μL diluted compound solution in each column from step 2 to assay plate, each row containing 2 replicates. […] The plates were incubated at room temperature for 15 minutes. 5 μL substrate working solution was added to each well to initiate reaction. Final ACC2 reaction concentrations consist of: 5 nM ACC2, 20 μM ATP, 20 μM acetyl-CoA, 12 mM NaHCO3, 0.01% Brij35, 2 mM DTT, 5% DMSO, test compound concentrations: 30 μM, 10 μM, 3.33 μM, 1.11 μM, 0.37 μM, 0.123 μM, 0.0411 μM, 0.0137 μM, 0.00457 μM, 0.00152 μM, and 0.00051 μM. Plates were incubated at room temperature for 60 minutes. 10 μL ADP glo reagent was added. Plates were incubated at room temperature for 40 minutes. 20 μL kinase detection reagent was added. Plates were incubated at room temperature for 40 minutes, then read on a Perkin Elmer EnVision 2104 plate reader for luminescence as Relative Light Units (RLU).
(§4) Data for each concentration, as well as the positive and negative controls were averaged, and the standard deviation calculated. Percent inhibition was calculated by the formula: 100×(average negative control-compound)/(average negative control-average positive control). The IC50 for each compound was calculated by fitting the data with a non-linear regress ion equation: Y=Bottom+(Top−Bottom)/(1+10((Log IC50−X* HillSlope)), where X is the log of compound concentration and Y is percent inhibition.

[2] = tested on: HepG2; experiment: EC50 in HepG2; format: cell-based
[3] = biological target: ACC1 (Homo sapiens (Human), UniProt Q13085); experiment: In vitro ACC inhibition assay (ADP-Glo), ACC1; format: biochemical
Experimental: as §1, §2, §3, §4

[4] = 5 nM ACC2, 20 μM ATP, 20 μM acetyl-CoA, read-out: IC50 (μM) ACC2
[5] = ND630 versus RJ compounds, isoform not given, read-out: IC50 (μM) ND630/RJ-cmps(%)
[6] = ND630 versus RJ compounds, read-out: EC50 (μM) ND630/RJ-cmps(%)
[7] = HepG2, read-out: EC50 (μM) HepG2
[8] = Homo sapiens, HepG2, read-out: EC50 (μM) HepG2

Chain of ACC2 (O00763 whole entry, species assumed): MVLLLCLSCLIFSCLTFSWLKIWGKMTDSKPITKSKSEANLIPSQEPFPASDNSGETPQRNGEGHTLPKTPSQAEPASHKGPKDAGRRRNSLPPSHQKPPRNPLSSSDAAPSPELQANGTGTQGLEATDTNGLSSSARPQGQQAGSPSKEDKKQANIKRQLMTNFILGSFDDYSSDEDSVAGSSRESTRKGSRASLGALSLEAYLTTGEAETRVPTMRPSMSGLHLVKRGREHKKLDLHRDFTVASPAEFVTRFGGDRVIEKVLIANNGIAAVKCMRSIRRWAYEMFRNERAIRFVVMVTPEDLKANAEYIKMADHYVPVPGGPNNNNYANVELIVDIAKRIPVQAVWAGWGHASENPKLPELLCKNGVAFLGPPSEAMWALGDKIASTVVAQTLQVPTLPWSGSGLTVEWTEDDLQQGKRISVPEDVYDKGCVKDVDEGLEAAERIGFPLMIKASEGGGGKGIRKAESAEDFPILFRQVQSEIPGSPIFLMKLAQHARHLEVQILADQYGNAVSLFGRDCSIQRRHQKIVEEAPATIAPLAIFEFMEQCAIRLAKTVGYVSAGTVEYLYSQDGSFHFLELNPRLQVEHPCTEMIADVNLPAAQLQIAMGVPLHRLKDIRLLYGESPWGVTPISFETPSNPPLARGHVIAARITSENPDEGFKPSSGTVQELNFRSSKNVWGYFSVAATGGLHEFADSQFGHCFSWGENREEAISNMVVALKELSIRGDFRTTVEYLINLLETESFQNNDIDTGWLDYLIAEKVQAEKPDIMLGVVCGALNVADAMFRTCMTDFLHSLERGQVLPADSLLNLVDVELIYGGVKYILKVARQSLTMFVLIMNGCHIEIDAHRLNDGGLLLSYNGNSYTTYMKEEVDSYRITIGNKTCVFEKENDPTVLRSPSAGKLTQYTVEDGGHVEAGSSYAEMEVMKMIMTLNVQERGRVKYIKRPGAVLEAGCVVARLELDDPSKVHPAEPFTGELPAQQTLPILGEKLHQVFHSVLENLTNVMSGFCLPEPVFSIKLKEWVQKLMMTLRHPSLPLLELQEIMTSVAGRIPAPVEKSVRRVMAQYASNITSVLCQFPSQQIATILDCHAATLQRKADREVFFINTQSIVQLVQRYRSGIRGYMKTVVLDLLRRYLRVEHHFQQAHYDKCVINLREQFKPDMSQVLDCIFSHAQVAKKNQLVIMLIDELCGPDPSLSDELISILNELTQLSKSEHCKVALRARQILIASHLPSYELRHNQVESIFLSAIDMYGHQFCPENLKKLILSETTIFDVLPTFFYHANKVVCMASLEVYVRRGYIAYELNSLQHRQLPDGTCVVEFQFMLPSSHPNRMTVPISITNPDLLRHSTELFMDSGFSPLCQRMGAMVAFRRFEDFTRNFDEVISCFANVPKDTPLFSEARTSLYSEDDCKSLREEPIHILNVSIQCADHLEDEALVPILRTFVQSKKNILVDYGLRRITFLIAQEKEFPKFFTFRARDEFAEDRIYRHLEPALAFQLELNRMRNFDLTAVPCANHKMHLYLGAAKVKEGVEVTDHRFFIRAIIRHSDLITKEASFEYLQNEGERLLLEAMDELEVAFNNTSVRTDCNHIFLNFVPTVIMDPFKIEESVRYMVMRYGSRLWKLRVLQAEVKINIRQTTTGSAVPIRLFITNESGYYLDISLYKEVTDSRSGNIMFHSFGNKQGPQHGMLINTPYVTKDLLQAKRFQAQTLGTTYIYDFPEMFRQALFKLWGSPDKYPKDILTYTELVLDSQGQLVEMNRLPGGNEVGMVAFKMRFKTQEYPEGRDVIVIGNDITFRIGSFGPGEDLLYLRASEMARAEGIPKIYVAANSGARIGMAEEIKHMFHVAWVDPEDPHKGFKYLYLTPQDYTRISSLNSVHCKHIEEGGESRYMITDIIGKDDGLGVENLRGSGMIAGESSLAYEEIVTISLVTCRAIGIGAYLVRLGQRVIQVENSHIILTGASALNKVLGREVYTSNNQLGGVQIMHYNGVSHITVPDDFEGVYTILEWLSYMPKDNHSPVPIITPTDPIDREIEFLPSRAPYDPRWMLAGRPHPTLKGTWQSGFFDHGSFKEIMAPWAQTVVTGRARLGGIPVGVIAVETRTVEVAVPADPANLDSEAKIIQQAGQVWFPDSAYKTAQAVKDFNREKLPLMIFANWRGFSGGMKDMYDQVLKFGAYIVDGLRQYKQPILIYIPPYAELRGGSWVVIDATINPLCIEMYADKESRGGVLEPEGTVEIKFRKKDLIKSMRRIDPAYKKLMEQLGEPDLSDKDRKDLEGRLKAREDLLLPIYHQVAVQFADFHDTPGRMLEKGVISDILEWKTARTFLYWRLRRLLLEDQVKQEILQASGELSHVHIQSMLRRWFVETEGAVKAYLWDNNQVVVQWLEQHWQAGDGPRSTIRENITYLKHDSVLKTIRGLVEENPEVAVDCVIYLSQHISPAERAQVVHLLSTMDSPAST

| SMILES | IC50 [1, 4] | IC50 [1, 5] | EC50 [2, 6] | IC50 [3] | EC50 [2, 7] | EC50 [2, 8] | EC50 ([2]; Homo sapiens, ND630 versus RJ compounds, read-out: EC50 (μM) ND630/RJ-cmps(%)) |
| --- | --- | --- | --- | --- | --- | --- | --- |
| COc1ccccc1[C@@H](Cn1c(=O)n(C2(C(=O)O)CC2)c(=O)c2c(C)c(Br)sc21)OC1CCOCC1 [Example 32] | 0.1 to 1 µM | 0.003 to 0.005 µM | 0.1 to 1 µM |  |  |  |  |
| CNC(=O)C1(n2c(=O)c3c(C)c(-c4ncco4)sc3n(CC(OC3CCOCC3)c3ccccc3OC)c2=O)CCCC1 (stereo not shown) [Example 44] | 0.01 to 0.1 µM | 0.005 to 0.01 µM | > 1 µM | 0.001 to 0.01 µM | < 0.01 µM |  |  |
| COc1ccccc1C(Cn1c(=O)n(C2(C(=O)O)CC2)c(=O)c2c(C)c(-c3ncco3)sc21)OC1CCOCC1 (stereo not shown) [Example 3, 1-[1-[2-(2-methoxyphenyl)-2-tetrahydropyran-4-yloxy-ethyl]-5-methyl-6-oxazol-2-yl-2,4-dioxo-thieno[2,3-d]pyrimidin-3-yl]cyclopropanecarboxylic acid] | 0.01 to 0.1 µM | 0.005 to 0.01 µM |  |  |  | 0.01 to 0.1 µM | > 1 µM |
| COc1ccccc1C(Cn1c(=O)n(C2(C(=O)O)CCC2)c(=O)c2c(C)c(-c3ncco3)sc21)OC1CCOCC1 (stereo not shown) [Example 26] | < 0.01 µM | 0.003 to 0.005 µM | 0.1 to 1 µM |  |  |  |  |
| COc1ccccc1[C@@H](Cn1c(=O)n(C2(C(=O)O)CC2)c(=O)c2c(C)c(-c3ncco3)sc21)OC1CCOCC1 [Example 28] | 0.1 to 1 µM | 0.003 to 0.005 µM | 0.1 to 1 µM |  |  |  |  |
| CNC(=O)C1(n2c(=O)c3c(C)c(-c4ncco4)sc3n(CC(OC3CCOCC3)c3ccccc3OC)c2=O)CC1 (stereo not shown) [Example 47] | 0.01 to 0.1 µM | 0.005 to 0.01 µM | > 1 µM | 0.001 to 0.01 µM | 0.01 to 0.1 µM |  |  |
| COc1ccccc1C(Cn1c(=O)n(C2(C(N)=O)CCC2)c(=O)c2c(C)c(Br)sc21)OC1CCOCC1 (stereo not shown) [Example 51] | 0.01 to 0.1 µM | 0.003 to 0.005 µM | > 1 µM | 0.01 to 0.05 µM | 0.01 to 0.1 µM |  |  |
| COc1ccccc1[C@H](Cn1c(=O)n(C2(CC(N)=O)CC2)c(=O)c2c(C)c(Br)sc21)OC1CCOCC1 [Example 60] | 0.01 to 0.1 µM | > 0.01 µM |  | 0.01 to 0.05 µM |  |  |  |
| COc1ccccc1C(Cn1c(=O)n(C2(CC(=O)O)CC2)c(=O)c2c(C)c(-c3ncco3)sc21)OC1CCOCC1 (stereo not shown) [Example 82] | 0.01 to 0.1 µM | 0.005 to 0.01 µM | > 1 µM |  | 0.01 to 0.1 µM |  |  |
| COCCNC(=O)CC1(n2c(=O)c3c(C)c(-c4ncco4)sc3n(CC(OC3CCOCC3)c3ccccc3OC)c2=O)CC1 (stereo not shown) [Example 65] | 0.01 to 0.1 µM |  |  |  | > 1 µM |  |  |
| COc1ccccc1[C@H](Cn1c(=O)n(C2(C(=O)O)CC2)c(=O)c2c(C)c(-n3cccn3)sc21)OC1CCOCC1 [Example 45] | < 0.01 µM | 0.005 to 0.01 µM | > 1 µM |  | 0.1 to 1 µM |  |  |
| COc1ccccc1[C@H](Cn1c(=O)n(C2(C(=O)O)CC2)c(=O)c2cc(-c3ncco3)ccc21)OC1CCOCC1 [Example 39] | > 1 µM | 0.005 to 0.01 µM | 0.01 to 0.1 µM |  | 0.1 to 1 µM |  |  |
| COc1ccccc1C(Cn1c(=O)n(C2(CC(=O)N3CCOCC3)CC2)c(=O)c2c(C)c(Br)sc21)OC1CCOCC1 (stereo not shown) [Example 23] | 0.1 to 1 µM | 0.003 to 0.005 µM | 0.1 to 1 µM |  |  |  |  |
| COCc1sc2c(c1C)c(=O)n(C1(C(=O)O)CCCC1)c(=O)n2C[C@H](CC1CCOCC1)c1ccccc1OC [Example 27] | > 1 µM | 0.003 to 0.005 µM | 0.1 to 1 µM |  |  |  |  |
| COc1ccccc1[C@H](Cn1c(=O)n(C2(C(=O)O)CC2)c(=O)c2c(C)c(-n3cncn3)sc21)OC1CCOCC1 [Example 56] | 0.1 to 1 µM | 0.005 to 0.01 µM |  |  |  |  |  |
| COc1ccccc1C(Cn1c(=O)n(C(C)(C)C(=O)O)c(=O)c2cc(C)c(Br)cc21)OC1CCOCC1 (stereo not shown) [Example 12] | > 1 µM | 0.005 to 0.01 µM | 0.01 to 0.1 µM |  |  |  |  |
| COc1ccccc1[C@H](Cn1c(=O)n(C(C)(C)C(=O)OC(C)(C)C)c(=O)c2c(C)c(-c3ncco3)sc21)OC1CCOCC1 [Example 66] | 0.01 to 0.1 µM | > 0.01 µM |  | 0.001 to 0.01 µM |  |  |  |

| SMILES | IC50 [1, 4] | IC50 [1, 5] | EC50 [2, 6] | IC50 [3] | EC50 [2, 7] | EC50 [2, 8] | EC50 ([2]; Homo sapiens, ND630 versus RJ compounds, read-out: EC50 (μM) ND630/RJ-cmps(%)) |
| --- | --- | --- | --- | --- | --- | --- | --- |
| COc1ccccc1C(O)Cn1c(=O)n(C(C)(C)C(=O)O)c(=O)c2cc(C)c(-c3ncco3)cc21 (stereo not shown) [Example 13] | > 1 µM | 0.005 to 0.01 µM | 0.01 to 0.1 µM |  |  |  |  |
| COc1ccccc1[C@H](Cn1c(=O)n(C2(C(=O)O)CC2)c(=O)c2c(C)c(-n3nccn3)sc21)OC1CCOCC1 [Example 49] | < 0.01 µM | 0.003 to 0.005 µM | 0.1 to 1 µM |  | 0.1 to 1 µM |  |  |
| CNC(=O)C1(n2c(=O)c3c(C)c(Br)sc3n(CC(OC3CCOCC3)c3ccccc3OC)c2=O)CCCC1 (stereo not shown) [Example 50] | 0.01 to 0.1 µM | 0.003 to 0.005 µM | 0.1 to 1 µM |  |  |  |  |
| COC(=O)C1(n2c(=O)c3c(C)c(Br)sc3n(C[C@H](OC3CCOCC3)c3ccccc3OC)c2=O)CCC1 [Example 67] | 0.1 to 1 µM | > 0.01 µM |  | > 0.05 µM |  |  |  |
| COc1ccccc1[C@H](Cn1c(=O)n(C2(C(=O)O)CCC2)c(=O)c2c(C)c(CN)sc21)OC1CCOCC1 [Example 34] | > 1 µM | 0.003 to 0.005 µM | 0.1 to 1 µM |  |  |  |  |
| COc1ccccc1[C@H](Cn1c(=O)n(C2(C(=O)O)CC2)c(=O)c2c(C)c(-c3cnco3)sc21)OC1CCOCC1 [Example 80] | 0.01 to 0.1 µM | 0.005 to 0.01 µM | > 1 µM |  | > 1 µM |  |  |
| COc1ccccc1[C@H](Cn1c(=O)n(C(C)(C)C(=O)O)c(=O)c2c(C)c(-c3ncco3)sc21)OC1CCOCC1 [Example 8] | 0.01 to 0.1 µM | 0.005 to 0.01 µM | > 1 µM |  | > 1 µM |  |  |
| COc1ccccc1[C@H](Cn1c(=O)n(C(C)(C)C(=O)OC(C)(C)C)c(=O)c2c(C)c(Br)sc21)OC1CCOCC1 [Example 68] | 0.1 to 1 µM | > 0.01 µM |  | > 0.05 µM |  |  |  |
| CNC(=O)C1(n2c(=O)c3cc(Br)sc3n(C[C@H](OC3CCOCC3)c3ccccc3OC)c2=O)CC1 [Example 57] | 0.1 to 1 µM | 0.005 to 0.01 µM |  |  | 0.1 to 1 µM |  |  |
| COc1ccccc1C(Cn1c(=O)n(C2(C(=O)O)CCCC2)c(=O)c2c(C)c(-c3ncco3)sc21)OC1CCOCC1 (stereo not shown) [Example 25] | < 0.01 µM | 0.003 to 0.005 µM | 0.1 to 1 µM |  |  |  |  |
| COc1ccccc1C(Cn1c(=O)n(C2(C(N)=O)CCCC2)c(=O)c2c(C)c(Br)sc21)OC1CCOCC1 (stereo not shown) [Example 48] | < 0.01 µM | 0.003 to 0.005 µM | > 1 µM |  | 0.1 to 1 µM |  |  |
| COc1ccccc1[C@H](Cn1c(=O)n(C2(C(=O)O)CC2)c(=O)c2c(C)csc21)OC1CCOCC1 [Example 17] | > 1 µM | 0.005 to 0.01 µM |  |  |  |  |  |
| COc1ccccc1[C@H](Cn1c(=O)n(C2(CC(=O)O)CC2)c(=O)c2c(C)c(Br)sc21)OC1CCOCC1 [Example 59] | 0.01 to 0.1 µM | > 0.01 µM |  | 0.01 to 0.05 µM |  |  |  |
| COc1ccccc1C(Cn1c(=O)n(C(C)(C)C(=O)O)c(=O)c2c(C)c(Br)sc21)OC1CCOCC1 (stereo not shown) [Example 10] | 0.01 to 0.1 µM | 0.005 to 0.01 µM | > 1 µM |  | 0.1 to 1 µM |  |  |
| COc1ccccc1C(Cn1c(=O)n(C(C)(C)C(=O)O)c(=O)c2cc(C)c(-c3ncco3)cc21)OC1CCOCC1 (stereo not shown) [Example 11] | > 1 µM | 0.005 to 0.01 µM | 0.01 to 0.1 µM |  |  |  |  |
| COc1ccccc1[C@H](Cn1c(=O)n(C(C)(C)C(=O)O)c(=O)c2c(C)c(-c3nnco3)sc21)OC1CCOCC1 [Example 9] | 0.1 to 1 µM | 0.005 to 0.01 µM | > 1 µM |  | > 1 µM |  |  |
| COc1ccccc1C(Cn1c(=O)n(C2(C(=O)O)CC2)c(=O)c2c(C)c(Br)sc21)OC1CCOCC1 (stereo not shown) [Example 4, 1-(6-bromo-1-(2-(2-methoxyphenyl)-2-(tetrahydro-2H-pyran-4-yloxy)ethyl)-5-methyl-2,4-dioxo-1,2-dihydrothieno[2,3-d]pyrimidin-3(4H)-yl)cyclopropanecarboxylic Acid] | 0.01 to 0.1 µM | 0.005 to 0.01 µM |  |  |  | 0.01 to 0.1 µM |  |
